Assay results reported in US4764617A, “Quinaldinamide derivatives” (Nippon Chemiphar Co., Ltd., priority 1986, dated 1988).
Counter-ions that a name gives are not always drawn.

How the values were obtained:
[1] = tested on: anemic decerebrated rigidity; experiment: Effect on anemic decerebrated rigidity (rigidity relieving effect, EMG of forelimb M. triceps brachii); type: in vivo, rat (Wister male rats); settings: rat; for inhibition in vivo at 3 mg/kg: iv, 10 min, 3 mg/kg through the femoral vein, 10 minutes after administration, * fumarate, ** oxalate, read-out: Relieving Rate (suppression rate of EMG)
Experimental: The experiment was performed using specimen of anemic decerebrated rigidity produced in rats according to the method of Fukuda, H., Ito, T., Hashimoto, S., and Kudo, Y.; Japan, J., Pharmacol., 24, 810 (1974). Wister male rats (body weight: 270 to 350 g) were held on their backs and incised at their cervices under etherization. After the trachea and common carotid arteries were exposed, the trachea was cannulated and the bilateral common carotid arteries and esophagus were then double-[…] cut. Subsequently, its occipital bone was exposed through which a circular hole was bored to double-ligate the centrally extending basilar artery. As each rat started coming out of anesthetization, its front limbs became rigid. Measurement was conducted by recording electromyographic (EMG) response from the muscle of the forelimb (M. triceps brachii) of the rat in the rigid state. The EMG pulses were converted to accumulated values every 10 seconds and recorded as a histogram on a recorder. The effect of each test compound on the rigidity was evaluated in terms of the suppression rate. This rate was calculated first by determining the area (see FIG. 1) of a decreased EMG pulse part on the histrograpm upon passage of 10 minutes after administration of a physiological saline solution of each test compound (3 mg/kg) through the femoral vein and then in accordance with the following equation: Suppression rate (%)=(a/A)×100 wherein a means an EMG pulse area decreased as a result of the administration of the test compound; and A means an EMG pulse area observed when no test compound was administered (control).

[2] = Acute toxicity (LD50, up-and-down method); settings: in vivo; iv, tail vein, ddN male mouse; * fumarate, ** oxalate
Experimental: LD50 was determined by a known up-and-down method using ddN male mouse. The test compound was dissolved in a physiological saline solution, and the resulting solution was administered into the mouse through the tail vein.

[3] = tested on: glutamic acid at neuromuscular junctions of crayfish (opener muscles of the first walking legs); experiment: Blocking effects on glutamic acid at neuromuscular junctions of crayfish (suppression of L-glutamic acid-induced depolarization); settings: test compound 2×10^-4 M, 5-minute pretreatment; L-glutamic acid 10^-4 M; 200 µM
Experimental: The method of Ishida et al., [(J. Physiol., 298, 301-319 (1980)] and that of Shinozaki et al. [Comp. Biochem. Physiol., 70c, 49-58 (1981)] were followed. The opener muscles of the first walking legs of crayfish were used as experimental materials. The neuromuscular sample was held in a bath in which a physiologicl solution [NaCl (195 mM), CaCl2 (18 mM, KCl (5.4 mM), tris-maleate buffer (pH 7.5, 10 mM), and glucose (11 mM)] for use with the cray fish was perfused at room temperature and at a constant flow rate. A glass micro-electrode filled with a 3M-KCl solution was inserted in a central part of the muscle fiber to intracellularly record the changes in the potential of the muscular cell membrane.
The blocking effect of each test compound on glutamic acid was evaluated in terms of the suppression rate to depolarization which was induced by bath-applying L-glutamic acid (10^-4 M) in a 5-minute pretreatment with a solution of the test compound (2×10^-4 M).

| Structure (SMILES) | inhibition in vivo at 3 mg/kg [1] [%] | LD50 [2] [mg/kg] | rigidity relieving effect (in words) ([1]; in vivo) | Glutamic Acid-Blocking Rate (suppression rate to depolarization) [3] [%] |
| --- | --- | --- | --- | --- |
| CCN(CC)CCC(NC(=O)c1ccc2ccccc2n1)c1ccccc1 (centres unmarked) [Compound 2, N-(3-diethylamino-1-phenylpropyl)quinaldinamide] | 24.6 | 18.9 |  |  |
| CCN(CC)CCNC(=O)c1ccc2ccccc2n1 [N-(2-diethylaminoethyl)quinaldinamide, reference compound] |  |  | very weak rigidity relieving effect |  |
| Cc1ccc(C(=O)C(C)CN2CCCCC2)cc1 (centres unmarked) [Control Compound 2, 2,4'-dimethyl-3-piperidinopropiophenone hydrochloride, reference compound] | 4.8 |  |  |  |
| Cc1cccc(C(CCN2CCCCC2)NC(=O)c2ccc3ccccc3n2)c1 (centres unmarked) [Compound 8, N-[1-(3-methylphenyl)-3-piperidinopropyl]quinaldinamide] | 11.7 | 25.4 |  |  |
| O=C(NC(CCN1CCCCCC1)c1ccccc1)c1ccc2ccccc2n1 (centres unmarked) [Compound 6, N-[3-(perhydroazepin-1-yl)-1-phenylpropyl]quinaldinamide] | 12.2 | 15.2 |  |  |
| Cc1ccccc1C(CCN1CCCCC1)NC(=O)c1ccc2ccccc2n1 (centres unmarked) [Compound 7, N-[1-(2-methylphenyl)-3-piperidinopropyl]quinaldinamide] | 11.2 | 23.5 |  |  |
| CCN(CC)CCNC(=O)c1ccc2ccccc2n1 [Control Compound 1, N-(2-diethylaminoethyl)quiinaldinamide fumarate, reference compound] | 1.2 |  |  | 30 |
| O=C(NC(CCN1CCCC1)c1ccccc1)c1ccc2ccccc2n1 (centres unmarked) [Compound 4, N-(1-phenyl-3-pyrrolidinopropyl)quinaldinamide] | 19.6 | 17.2 |  |  |
| O=C(NC(CCN1CCCCC1)c1ccccc1)c1ccc2ccccc2n1 (centres unmarked) [Compound 5, N-(1-phenyl-3-piperidinopropyl)quinaldinamide] | 18.8 | 24.8 |  | 66 |
